Data as given in patent US11702429B2, “mTORC modulators and uses thereof” (Aeovian Pharmaceuticals, Inc., priority 2019, dated 2023).

Columns and labels:
mTORC1 = molecular target: T1, mTORC1 (Homo sapiens, UniProt P42345+P62942); test: Inhibition assay for mTORC1: phosphorylation of pS6K at Thr389, AlphaLISA in PC3 cells; type: cell-based; details: PC3 cells, treated 24 hours, pS6K Thr389, AlphaLISA, C16 diastereomer mixtures not separated; for IC50: read-out: pIC50 mTORC1 (converted)
T1 construct: endogenous in cells; host or cells: PC3 cells (human prostate adenocarcinoma)
Method: (§1) The IC50s of the inhibition of mTORC1 and mTORC2 were determined in vitro by determining the phosphorylation of pS6K at position Thr389 (mTORC1 inhibition) and pAkt at Ser473 (mTORC2 inhibition). In vitro studies were performed with AlphaLISA® technology using PC3 cells (Prostate Adenocarcinoma; Human (Homo sapiens)). The cells were seeded in 96 well plates and were treated for 24 hours with the different compounds. […] All analysis were performed using GraphPad Prism 7.0 (GraphPad Software, San Diego, USA).

mTORC2 = molecular target: T2, mTORC2 (Homo sapiens, UniProt P42345+P62942); test: Inhibition assay for mTORC2: phosphorylation of pAkt at Ser473, AlphaLISA in PC3 cells; type: cell-based; details: PC3 cells, treated 24 hours, pAkt Ser473, AlphaLISA, C16 diastereomer mixtures not separated; for IC50: read-out: pIC50 mTORC2 (converted)
T2 construct: endogenous in cells; host or cells: PC3 cells (human prostate adenocarcinoma)
T2 sequence (P62942 2-108 limits assumed, other chains not shown): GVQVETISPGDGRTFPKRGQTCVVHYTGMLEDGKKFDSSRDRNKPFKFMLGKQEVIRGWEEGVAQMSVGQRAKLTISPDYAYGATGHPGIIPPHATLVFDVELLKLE
Method: as §1

| Structure (SMILES) | IC50 (mTORC1) [nM] | IC50 (mTORC2) [nM] | pIC50 mTORC1 (mTORC1) | pIC50 mTORC2 (mTORC2) |
| --- | --- | --- | --- | --- |
| CO[C@@H]1C[C@H](C[C@@H](C)[C@@H]2CC(=O)[C@H](C)/C=C(\C)[C@@H](O)[C@@H](OC)C(=O)[C@H](C)C[C@H](C)/C=C/C=C/C=C(\C)C(OCCO)C[C@@H]3CC[C@@H](C)[C@@](O)(O3)C(=O)C(=O)N3CCCC[C@H]3C(=O)O2)CC[C@H]1OC(=O)NCCc1ccccc1 (mixture of isomers) [Compound 1, [(1R,2R,4S)-4-[(2R)-2-[(1R,9S,12SR,15R,16E,18R,19R,21R,23S,24E,26E,28E,32SR,35R)-1,18-dihydroxy-30-(2-hydroxyethoxy)-19-methoxy-15,17,21,23,29,35-hexamethyl-2,3,10,14,20-pentaoxo-11,36-dioxa-4-azatricyclo[30.3.1.0^4,9]hexatriaconta-16,24,26,28-tetraen-1^2-yl]propyl]-2-methoxy-cyclohexyl] N-(2-phenylethyl)carbamate] | < 0.316 | > 10000 | – | – |
| COC1CC(CC(C)C2CC(=O)C(C)C=C(C)C(O)C(OC)C(=O)C(C)CC(C)C=CC=CC=C(C)C(OCCO)CC3CCC(C)C(O)(O3)C(=O)C(=O)N3CCCCC3C(=O)O2)CCC1OCCCN1CCOCC1C (mixture of isomers) [Compound 2] | – | – | A (pIC50 for mTORC1 of >9.5 as A) | A (PIC50 for mTORC2 of <5 as A) |
| COC1CC(CC(C)C2CC(=O)C(C)C=C(C)C(O)C(OC)C(=O)C(C)CC(C)C=CC=CC=C(C)C(OCCO)CC3CCC(C)C(O)(O3)C(=O)C(=O)N3CCCCC3C(=O)O2)CCC1OCCCN1CCOCC1C (mixture of isomers) [Compound 5] | < 0.316 | > 10000 | – | – |
| CO[C@@H]1C[C@H](C[C@@H](C)[C@@H]2CC(=O)[C@H](C)/C=C(\C)[C@@H](O)[C@@H](OC)C(=O)[C@H](C)C[C@H](C)/C=C/C=C/C=C(\C)C(OCCO)C[C@@H]3CC[C@@H](C)[C@@](O)(O3)C(=O)C(=O)N3CCCC[C@H]3C(=O)O2)CC[C@H]1OCCCN1CCO[C@H](C)C1 (mixture of isomers) [Compound 13] | < 0.316 | – | – | – |
| COCCOC1C[C@@H]2CC[C@@H](C)[C@@](O)(O2)C(=O)C(=O)N2CCCC[C@H]2C(=O)O[C@H]([C@H](C)C[C@@H]2CC[C@@H](OCCCN3CC4(COC4)C3)[C@H](OC)C2)CC(=O)[C@H](C)/C=C(\C)[C@@H](O)[C@@H](OC)C(=O)[C@H](C)C[C@H](C)/C=C/C=C/C=C/1C (mixture of isomers) [Compound 26] | < 0.316 | > 10000 | – | – |

More lines, now with the values ahead:

| IC50 (mTORC1) [nM] | IC50 (mTORC2) [nM] | pIC50 mTORC1 (mTORC1) | pIC50 mTORC2 (mTORC2) | Structure (SMILES) |
| --- | --- | --- | --- | --- |
| < 0.316 | 1000 to 10000 | – | – | CO[C@@H]1C[C@H](C[C@@H](C)[C@@H]2CC(=O)[C@H](C)/C=C(\C)[C@@H](O)[C@@H](OC)C(=O)[C@H](C)C[C@H](C)/C=C/C=C/C=C(\C)C(OCCCCO)C[C@@H]3CC[C@@H](C)[C@@](O)(O3)C(=O)C(=O)N3CCCC[C@H]3C(=O)O2)CC[C@H]1OCCCN1CCOCC1 (mixture of isomers) [Compound 27] |
| 0.316 to 3.16 | > 10000 | – | – | CO[C@@H]1C[C@H](C[C@@H](C)[C@@H]2CC(=O)[C@H](C)/C=C(\C)[C@@H](O)[C@@H](OC)C(=O)[C@H](C)C[C@H](C)/C=C/C=C/C=C(\C)C(OCCO)C[C@@H]3CC[C@@H](C)[C@@](O)(O3)C(=O)C(=O)N3CCCC[C@H]3C(=O)O2)CC[C@H]1OCCCN1CCN(C)CC1 (mixture of isomers) [Compound 34] |
| < 0.316 | 1000 to 10000 | – | – | COCCOC1C[C@@H]2CC[C@@H](C)[C@@](O)(O2)C(=O)C(=O)N2CCCC[C@H]2C(=O)O[C@H]([C@H](C)C[C@@H]2CC[C@@H](OCCCN3CCN(C(C)C)CC3)[C@H](OC)C2)CC(=O)[C@H](C)/C=C(\C)[C@@H](O)[C@@H](OC)C(=O)[C@H](C)C[C@H](C)/C=C/C=C/C=C/1C (mixture of isomers) [Compound 39] |
| < 0.316 | 1000 to 10000 | – | – | COCCOC1CC2CCC(C)C(O)(O2)C(=O)C(=O)N2CCCCC2C(=O)OC(C(C)CC2CCC(OCCCN3CCOCC3C)C(OC)C2)CC(=O)C(C)C=C(C)C(O)C(OC)C(=O)C(C)CC(C)C=CC=CC=C1C (mixture of isomers) [Compound 42] |
